Here are results for 5 substances from patent publication US7223856B2, “Antisense compounds which prevent cell death and uses thereof” (The Trustees of Columbia University in the City of New York, priority 1997, dated 2007).

In data set [1] the test system is naive PC12 cells. Conditions: PC12 cells and sympathetic neurons, Troy et al., 1996b; cited from earlier work.
Data set [2] concerns PC12 cells. The settings on record: PC12 cells and sympathetic neurons, Troy et al., 1996b; cited from earlier work.
In data set [3] the test system is naive PC12 cells. Briefly: Survival of naive PC12 cells after serum deprivation (intact nuclei count). It counts as cell-based, rat. Conditions: for protection from death caused by serum deprivation: additive at time of plating in serum-free medium, 24 hours.
Procedure: (FIG. 4B) Dose-response curve for protection from serum deprivation by V-ANedd. PC12 cells were washed for trophic factor deprivation and plated in serum-free medium with the indicated concentrations of V-ANedd. Cell survival relative to the number present with the addition of NGF was measured at one day.
PC12 cells were grown as previously described (Greene and Tischler, 1976) on rat-tail collagen-coated dishes in RPMI 1640 medium containing 5% fetal calf serum and 10% heat-inactivated horse serum (complete medium). […] For cell survival assays involving trophic factor deprivation, cells (either naive or NGF-pretreated) were extensively washed in serum-free RPMI 1640 medium and re-plated on fresh collagen-coated 24-well dishes as previously described (Rukenstein et al., 1991) in RPMI 1640 medium lacking serum or NGF. […] Various concentrations of V-ANedd (vector linked antisense oligonucleotide to Nedd2) were included in the medium as indicated. Numbers of viable cells per culture were determined by quantifying intact nuclei as previously described (Rukenstein et al., 1991). Counts were performed in triplicate and reported as means ±SEM.
The subject of a further data set is Jurkat cells. As to the kind of experiment: Anti-Fas mediated death of Jurkat cells. The data set is classed as cell-based, human. Conditions: dose-dependent, FIG. 8. The source says: FIG. 8. […] V-ICH is an antisense oligonucleotide having an antisense sequence of human Ich, specifically V-AICH has the sequence of Seq ID No. 2.
• 1. […] Beta-amyloid peptide mediates apoptosis in PC12 cells. This apoptosis can be abrogated by down-regulation of Nedd2. Clinical Relevance of Antisense Oligonucleotides.

Data set [4] has as its system Nedd2. As to the kind of experiment: Nedd2 immunofluorescence staining of PC12 cells with anti-N-Nedd2. Conditions: 400 nM, 24 hours, naive and neuronal PC12 cells. The data set is classed as cell-based, rat. As for the experimental part: Naive and neuronally differentiated PC12 cells (pretreated for at least 7 days with NGF, nerve growth factor) were plated on Matrigel coated multichamber slides. V-ANedd (400 nM) was added to the indicated cultures after plating. Naive cultures were grown in RPMI 1640 medium with 5% FCS and 10% horse serum; neuronal cultures were grown in RPMI 1640 medium with 1% horse serum and NGF (100 ng/ml). After overnight maintenance, cells were fixed in ice cold methanol and then immunostained with anti-N-Nedd.
PC12 cells were plated on coverslips or on 8 well multichamber slides (LabTek, VWR), coated with Matrigel®. After growth overnight, cells were fixed in ice cold methanol and then immunostained as described (Troy et al., 1990). The primary antibody was either affinity purified antibody Anti-N-Nedd2 or Nedd2 p12 C20 (Santa Cruz Biotechnology) at a dilution of 1:200. The secondary antibody was fluoroscein isothiocyanate-conjugated goat anti-rabbit (Cappel, Durham, N.C.) at 1:100. For visualization with a Nikon® fluorescence microscope slides were coverslipped with Aqua-mount®. Confocal microscopy was done on a BioRad® 600 confocal microscope.

The test system of data set [5] is Nedd2. Briefly: Western blot of Nedd2 in PC12 cell lysates. The data set is classed as cell-based, rat. The source says: The cells were extracted in sample buffer, the extracts boiled and equal amounts of protein resolved by 10% SDS-PAGE and transferred to nitrocellulose. Blots were probed with (FIG. 3A) anti-N-Nedd at 1:500 or (FIG. 3B) anti-C-Nedd at […] and staining visualized with ECL. Bands were quantified using Scion Image® software and normalized against peripherin levels. The level of down-regulation is representative of that obtained in 5 independent experiments.
PC12 cells grown with or without V-ANedd or V-SNedd were harvested in SDS-containing sample buffer and immediately boiled. Equal amounts of protein were separated by 10% PAGE, transferred to nitrocellulose and immunostained as described (Troy et al., 1992). The affinity purified anti-N-Nedd2 was used at a dilution of 1:500. The commercial antiserum, Nedd2 p12 C20 (Santa Cruz Biotechnology), was used at a dilution of 1:350. Visualization was with ECL using goat-anti-rabbit peroxidase at 1:1000. The relative intensity of the protein bands were quantified using Scion Image 1.55® software and samples were normalized by stripping and reprobing the blots with anti-peripherin antibody.
(Immunoblotting shows a protein as a band on a membrane.)

A further data set relates to CPP-32. Briefly: Western blot of the same samples probed with anti-CPP32. Conditions: blots of the same samples probed with anti-CPP32. It counts as cell-based, rat.
In data set [6] the test system is PC12 cells. Briefly: Survival of PC12 cells after SOD1 down-regulation by V-ASOD1. The data set is classed as cell-based, rat. As for the experimental part:
(FIG. 4A) V-ANedd differentially protects PC12 cells from serum deprivation. For serum deprivation (4 left-hand bars) cells were extensively washed as described in Experimental Procedures hereinbelow and the indicated additives (100 ng/ml NGF, 400 nM V-ANedd, or 200 nM V-ICEinh were added at the time of plating in serum-free RPMI1640 medium. For SOD1 down-regulation (4 right-hand bars), PC12 cells were re-plated on fresh collagen-coated 24-well dishes in complete medium (RPMI 1640 medium with 10% horse serum, 5% fetal bovine serum) with 50 nM V-ASOD1 (vector linked antisense oligonucleotide to SOD1). Additives (800 nM V-ANedd, 25 nM V-ICEinh) were included as indicated. Control cells were in complete medium. Cultures were incubated for 24 hours, lysed and number of intact nuclei counted. The numbers of surviving cells are expressed relative to the number in the control cultures (designated as 100). […] Experiments were performed in triplicate wells and data are expressed as means ±SEM.
PC12 cells were grown as previously described (Greene and Tischler, 1976) on rat-tail collagen-coated dishes in RPMI 1640 medium containing 5% fetal calf serum and 10% heat-inactivated horse serum (complete medium). […] Numbers of viable cells per culture were determined by quantifying intact nuclei as previously described (Rukenstein et al., 1991). […]

Data set [7] concerns neuronally differentiated PC12 cells. As to the kind of experiment: Survival of neuronally differentiated PC12 cells after NGF withdrawal. The data set is classed as cell-based, rat. How it is done: (§1) (FIG. 5A) V-ANedd differentially protects neuronally differentiated PC12 cells from apoptosis caused by NGF withdrawal. PC12 cells were neuronally differentiated by exposure to NGF (100 ng/ml) for at least 7 days in RPMI 1640 medium plus 1% horse serum. Cells were deprived of serum and NGF and re-plated as described in FIGS. 4A–C. Additives present at the time of plating included 400 nM V-ANedd, 400 nM V-ICEinh or 100 ng/ml NGF (4 left-hand bars). For SOD1 down-regulation (4 right-hand bars) neuronally differentiated PC12 cells were plated in RPMI 1640 medium plus 1% horse serum, with 100 ng/ml NGF. At the time of plating, cultures were incubated, as indicated, with 50 nM V-ASOD1 and with the indicated additives (800 nM V-ANedd, 50 nM V-ICEinh). Cell survival was determined after one day and expressed as in FIGS. 4A–C.
(FIG. 5B) Dose-response curve for protection from NGF deprivation by V-ANedd. Neuronally differentiated PC12 cells were washed as above for NGF deprivation and plated in serum-free medium with the indicated concentrations of V-ANedd. Cell survival relative to the number present with the addition of NGF was quantified at one day.
(FIG. 5C) V-ANedd provides long term protection against NGF deprivation. Neuronally differentiated PC12 cells were deprived of NGF and serum and plated as described in FIG. 5A. V-ANedd (400 nM) was included at the time of NGF deprivation and replenished 1 day later. Cell survival was determined at the indicated times as in FIGS. 4A–C.
(§2) PC12 cells were grown as previously described (Greene and Tischler, 1976) on rat-tail collagen-coated dishes in RPMI 1640 medium containing 5% fetal calf serum and 10% heat-inactivated horse serum (complete medium). NGF primed (neuronally differentiated) PC12 cells were grown for at least 7 days in RPMI 1640 medium plus 1% horse serum and NGF (100 ng/ml). […] Numbers of viable cells per culture were determined by quantifying intact nuclei as previously described (Rukenstein et al., 1991). […]

For data set [8] the test system is unchanged. As to the kind of experiment: Survival of neuronally differentiated PC12 cells after SOD1 down-regulation. Conditions: 50 nM V-ASOD1. The data set is classed as cell-based, rat. How it is done:
as §1, §2

A further data set deals with IL-1β. Briefly: IL-1β release from PC12 cells by ELISA. The settings on record: 50 nM V-ASOD1, 800 nM V-ANedd, 20 hours. The data set is classed as cell-based, rat. As for the experimental part:
PC12 cells were plated with the indicated additives (50 nM V-ASOD1, 25 nM V-ICEinh, 800 nM V-ANedd). Controls contained complete medium. After 20 hours, media were removed and IL-1β was measured by ELISA using the Intertest-1βX® kit. Data are expressed as means ±SEM (n=3).
IL-1β was quantified by ELISA using the Intertest-1βX® kit (Genzyme, Cambridge, Mass.) as previously described (Troy et al., 1996b). PC12 cells were grown as described above, on 24-well plates, in 500 μl of medium. After one day incubation, medium was removed and IL-1β measured following the manufacturer's instructions, and number of viable cells in each well quantified.
On the technique in general: ELISA stands for enzyme-linked immunosorbent assay.

Data set [9] deals with sympathetic neurons. Briefly: Survival of sympathetic neurons after NGF deprivation. It counts as cell-based, rat. Conditions: for survival: single addition at time of NGF withdrawal. As for the experimental part:
(FIG. 6A) V-ANedd protects sympathetic neurons from NGF-withdrawal. At the time of NGF deprivation, V-ANedd (400 nM) was added to the cultures as indicated. Numbers of surviving neurons were determined at the indicated times as described in Experimental Procedures hereinbelow and are reported as relative to the number present in each culture at the time of NGF withdrawal.
(§3) Sympathetic neuron cultures were prepared from 2 day old rat pups, as previously described (Ferrari et al., 1995). Cultures were grown in 24-well collagen coated dishes in RPMI 1640 medium plus 10% horse serum with mouse NGF (100 ng/ml). One day following plating, uridine and 5-fluorodeoxyuridine (10 μM each) were added to the cultures and left for three days to eliminate non-neuronal cells. On the sixth day following plating NGF was removed by washing the cultures three times with RPMI 1640 medium plus 10% horse serum, followed by the addition of medium containing anti-mouse NGF (1:200, Sigma, St. Louis, Mo.) with or without V-ANedd. Each culture was scored, as previously described (Rydel and Greene, 1988), as numbers of living, phase-bright neurons at various times. Three replicate cultures were assessed for each condition and data are normalized to numbers of neurons present in each culture at the time of NGF withdrawal and reported as mean ±SEM.

The test system of data set [10] is sympathetic neurons. As to the kind of experiment: Sympathetic neuron death by SOD1 down-regulation and nitric oxide generation (V-ASOD1 + SNAP). The data set is classed as cell-based, rat. Conditions: V-ASOD1 50 nM, SNAP 100 μM, with NGF. How it is done:
Sympathetic neurons, after 6 days in culture, were maintained with NGF (100 ng/ml) and mixtures of the following additives as indicated: V-ASOD1 (50 nM), SNAP (100 μM) and V-ANedd (400 nM). Numbers of surviving neurons were determined at the indicated times as above.
as §3

As for IL-1Ra: IL-1 receptor antagonist, in the data set with naive PC12 cells [1], the “death caused by trophic factor/NGF withdrawal (literature)” value is recorded as “little or no effect”. Besides, the “apoptosis following SOD1 down-regulation (literature)” value in the data set with PC12 cells [2] was “suppressed”.
As for NGF: nerve growth factor, the “protection from death caused by serum deprivation” value (from here on “protection from death caused”) in the data set on naive PC12 cells [3] is given as “promotes survival of all cells initially plated”.
Turning to “V-AICH: antisense oligonucleotide having an antisense sequence of human Ich, Seq ID No. 2 (GTCAGCGGCCATCAGCTT) (linked to vector peptide (Penetratin1), oligo chemistry not given here)”, in the data set on Jurkat cells, the “protection from anti-Fas mediated death” value was “protect from anti-Fas mediated death in a dose-dependent manner”.
For the substance “V-ANedd: Penetratin1-linked antisense oligonucleotide to Nedd2, GCTCGGCGCCGCCATTTCCAG (SEQ ID NO:1) (Penetratin1 peptide conjugated, oligonucleotide chemistry not given here)”, the “anti-N-Nedd2 staining (immunohistochemistry)” value in the data set on Nedd2 [4] was “decreased to almost undetectable levels”. Further, in the data set on Nedd2 [5] (18–22 hours treatment, n=4), the “down-regulation of major band and minor Nedd2 bands” value is given as 60–70%. Also, the “down-regulation of Nedd2 in the presence of V-ASOD1” value in the data set with Nedd2 [5] (in the presence of V-ASOD1) is “did down-regulate Nedd2”. For the same substance, the “down-regulation of CPP-32” value in the data set on CPP-32 is recorded as “no down-regulation of CPP-32”. In addition, in the data set on naive PC12 cells [3] (added at the same time as serum withdrawal), the “concentration of maximal protection” value came to 400 nM. Further, the “protection from death caused” value with naive PC12 cells [3] was “protects naive PC12 cells from death caused by serum deprivation”. Also, the “concentration of maximal survival after pretreatment” value in the data set with naive PC12 cells [3] (pretreatment for 4 hours with 50 nM V-ANedd) was 100 nM. In addition, the “protection from SOD1 down-regulation” value in the data set on PC12 cells [6] (naive PC12 cells, 50 nM V-ASOD1, V-ANedd up to 800 nM) is recorded as “no protection from SOD1 down-regulation”. The “protection from SOD1 down-regulation after pretreatment” value with PC12 cells [6] (pretreatment with V-ANedd) was “without effect”. The “NGF-like flattening of naive PC12 cells or neurite outgrowth from neuronally-differentiated cells” value in [7] (morphology, 400 nM, 24 hr) is “did not mimic the actions of NGF”. The “protection from apoptosis caused by NGF withdrawal” value in data set [7] (neuronally differentiated PC12 cells, one day) is reported as “protected neuronally differentiated PC12 cells from apoptosis caused by NGF withdrawal”. In addition, the survival of cells entry in data set [7] (two successive additions (at NGF deprivation and one day later), through 4 days) is “greater than 75%”. Also, the “protection from down-regulation of SOD1” value in [8] was “not from down-regulation of SOD1”. Also, in the data set on IL-1β, the “IL-1β release after exposure to ASOD1” value is on record as “did not affect IL-1β release”. In the data set with sympathetic neurons [9] (400 nM, NGF-free medium with anti-NGF), the “maintenance of neurites of NGF-deprived neurons” value is recorded as “did not maintain the neurites”. Moreover, the survival result in the data set on sympathetic neurons [9] (after 4 days) is reported as “over 60%”; in the data set with sympathetic neurons [9] (at 8 days), 25%. Also, the “effect on sympathetic neuron death evoked by V-ASOD1+SNAP” value in the data set with sympathetic neurons [10] is “without effect”.
With “V-SNedd: control scrambled oligonucleotide CCGTAGCGTAGCTCCGCCTGC (SEQ ID NO:5) linked to vector peptide Penetratin 1 (linked to vector peptide Penetratin 1, further chemistry not given here) [reference compound]”, the “anti-N-Nedd2 staining (immunohistochemistry)” value in the data set with Nedd2 [4] is “no change in staining”. For the same substance, in the data set on Nedd2 [5] (control oligonucleotide, Western blot), the “down-regulation of Nedd2 bands (in words)” value is reported as “did not down-regulate any of the bands”. The “protection from death caused” value with naive PC12 cells [3] is recorded as “no effect on survival or death”.
